Experimental data reported in BindingDB's records for doi:10.1016/j.bmc.2006.03.027 (Abbott Laboratories, 2006).

Target: Transient receptor potential cation channel subfamily V member 1 (Homo sapiens, UniProt Q8NER1)
Experiment: Ca2+ Influx Functional Assay for the Determination of in Vitro Activity.
Settings: pH 7.4; 22 °C

Transient receptor potential cation channel subfamily V member 1, sequence (Q8NER1 whole entry): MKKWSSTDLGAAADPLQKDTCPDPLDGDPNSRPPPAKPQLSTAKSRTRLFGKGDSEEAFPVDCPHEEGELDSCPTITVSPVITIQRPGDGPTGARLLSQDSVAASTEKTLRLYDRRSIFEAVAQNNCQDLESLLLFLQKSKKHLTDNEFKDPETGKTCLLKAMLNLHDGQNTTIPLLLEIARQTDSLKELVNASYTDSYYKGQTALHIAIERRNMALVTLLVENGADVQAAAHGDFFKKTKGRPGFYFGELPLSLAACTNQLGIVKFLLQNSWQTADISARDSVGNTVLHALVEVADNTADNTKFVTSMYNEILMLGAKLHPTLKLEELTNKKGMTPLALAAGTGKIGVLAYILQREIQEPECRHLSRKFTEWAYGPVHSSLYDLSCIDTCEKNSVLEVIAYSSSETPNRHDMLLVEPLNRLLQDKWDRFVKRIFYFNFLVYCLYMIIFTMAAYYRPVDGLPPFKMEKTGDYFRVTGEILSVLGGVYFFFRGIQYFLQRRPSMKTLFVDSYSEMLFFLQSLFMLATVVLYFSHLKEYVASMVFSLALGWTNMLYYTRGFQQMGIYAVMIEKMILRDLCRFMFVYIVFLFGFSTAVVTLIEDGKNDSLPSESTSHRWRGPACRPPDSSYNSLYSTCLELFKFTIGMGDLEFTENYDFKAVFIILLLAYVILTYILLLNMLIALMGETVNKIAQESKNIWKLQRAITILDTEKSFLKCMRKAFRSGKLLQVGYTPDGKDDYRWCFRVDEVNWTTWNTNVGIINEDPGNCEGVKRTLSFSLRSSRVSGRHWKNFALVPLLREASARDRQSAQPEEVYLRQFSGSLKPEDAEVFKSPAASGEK

| SMILES | EC50 [nM] |
| --- | --- |
| O=C(NCc1ccc(Br)cc1)Nc1ccc2[nH]ncc2c1 [1-[(4-bromophenyl)methyl]-3-1H-indazol-5-ylurea] | 3540 |
| O=C(NCc1ccc(Br)cc1)Nc1cccc2[nH]ccc12 [1-[(4-bromophenyl)methyl]-3-1H-indol-4-ylurea] | 110 |
| O=C(NCc1ccc(Br)cc1)Nc1ccc2[nH]ccc2c1 [1-[(4-bromophenyl)methyl]-3-1H-indol-5-ylurea] | 5850 |
| O=C(NCc1ccc(Br)cc1)Nc1ccc2cc[nH]c2c1 [1-[(4-bromophenyl)methyl]-3-1H-indol-6-ylurea] | 3010 |
| O=C(NCc1ccc(Br)cc1)Nc1cccc2cc[nH]c12 [1-[(4-bromophenyl)methyl]-3-1H-indol-7-ylurea] | 180 |
| Cn1ncc2c(NC(=O)NCc3ccc(Br)cc3)cccc21 [1-[(4-bromophenyl)methyl]-3-(1-methyl-1H-indazol-4-yl)urea] | 76 |
| Cc1[nH]c2cccc(NC(=O)NCc3ccc(Br)cc3)c2c1C [1-[(4-bromophenyl)methyl]-3-(2,3-dimethyl-1H-indol-4-yl)urea] | 1470 |
| Cn1cc2c(NC(=O)NCc3ccc(Br)cc3)cccc2n1 [1-[(4-bromophenyl)methyl]-3-(2-methyl-2H-indazol-4-yl)urea] | 1390 |
| O=C(NCc1ccc(F)cc1)Nc1cccc2[nH]ccc12 [1-[(4-fluorophenyl)methyl]-3-1H-indol-4-ylurea] | 2710 |
| Cn1ncc2c(NC(=O)NCc3ccc(F)cc3)cccc21 [1-[(4-fluorophenyl)methyl]-3-(1-methyl-1H-indazol-4-yl)urea] | 720 |
| O=C(Cc1cccc2[nH]ncc12)NCc1ccc(C(F)(F)F)cc1 [2-(1H-indazol-4-yl)-N-{[4-(trifluoromethyl)phenyl]methyl}acetamide] | 10200 |
| O=C(Cc1cccc2[nH]ccc12)NCc1ccc(C(F)(F)F)cc1 [2-(1H-indol-4-yl)-N-{[4-(trifluoromethyl)phenyl]methyl}acetamide] | 520 |
| O=C(NCc1ccc(Br)cc1)Nc1cccc2nc[nH]c12 [3-1H-1,3-benzodiazol-4-yl-1-[(4-bromophenyl)methyl]urea] | 2470 |
| O=C(NCc1ccc(OC(F)(F)F)cc1)Nc1cccc2[nH]ccc12 [3-1H-indol-4-yl-1-{[4-(trifluoromethoxy)phenyl]methyl}urea] | 80 |
| O=C(NCc1ccc(C(F)(F)F)cc1)Nc1cccc2[nH]ccc12 [3-1H-indol-4-yl-1-{[4-(trifluoromethyl)phenyl]methyl}urea] | 60 |
| Cn1ncc2c(NC(=O)NCc3ccc(OC(F)(F)F)cc3)cccc21 [3-(1-methyl-1H-indazol-4-yl)-1-{[4-(trifluoromethoxy)phenyl]methyl}urea] | 35 |
| O=C(Nc1cccc2[nH]ccc12)OCc1ccc(C(F)(F)F)cc1 [[4-(trifluoromethyl)phenyl]methyl N-(1H-indol-4-yl)carbamate] | 940 |

Results, then the compound that gave them:

| EC50 [nM] | SMILES |
| --- | --- |
| 21 | O=C(NCc1ccc(Cl)c(Cl)c1)Nc1cccc2[nH]ncc12 [1-[(3,4-dichlorophenyl)methyl]-3-1H-indazol-4-ylurea] |
| 220 | O=C(NCc1ccc(Cl)c(Cl)c1)Nc1cccc2[nH]ccc12 [1-[(3,4-dichlorophenyl)methyl]-3-1H-indol-4-ylurea] |
| 120 | Cn1ncc2c(NC(=O)NCc3ccc(Cl)c(Cl)c3)cccc21 [1-[(3,4-dichlorophenyl)methyl]-3-(1-methyl-1H-indazol-4-yl)urea] |
| 2700 | O=C(NCc1cccc(F)c1)Nc1cccc2[nH]ccc12 [1-[(3-fluorophenyl)methyl]-3-1H-indol-4-ylurea] |
| 13 | O=C(NCc1ccc(Br)cc1)Nc1cccc2[nH]ncc12 [1-[(4-bromophenyl)methyl]-3-1H-indazol-4-ylurea] |
| 150 | O=C(NCc1ccc(Cl)cc1)Nc1cccc2[nH]ccc12 [1-[(4-chlorophenyl)methyl]-3-1H-indol-4-ylurea] |
| 60 | Cn1ncc2c(NC(=O)NCc3ccc(Cl)cc3)cccc21 [1-[(4-chlorophenyl)methyl]-3-(1-methyl-1H-indazol-4-yl)urea] |
| 40 | O=C(NCc1ccc(C(F)(F)F)c(F)c1)Nc1cccc2[nH]ccc12 [1-{[3-fluoro-4-(trifluoromethyl)phenyl]methyl}-3-1H-indol-4-ylurea] |
| 70 | O=C(NCc1ccc(Cl)c(C(F)(F)F)c1)Nc1cccc2[nH]ccc12 [1-{[4-chloro-3-(trifluoromethyl)phenyl]methyl}-3-1H-indol-4-ylurea] |
| 44 | O=C(NCc1cccc(C(F)(F)F)c1)Nc1cccc2[nH]ncc12 [3-1H-indazol-4-yl-1-{[3-(trifluoromethyl)phenyl]methyl}urea] |
| 11 | O=C(NCc1ccc(OC(F)(F)F)cc1)Nc1cccc2[nH]ncc12 [3-1H-indazol-4-yl-1-{[4-(trifluoromethoxy)phenyl]methyl}urea] |
| 9 | O=C(NCc1ccc(C(F)(F)F)cc1)Nc1cccc2[nH]ncc12 [3-1H-indazol-4-yl-1-{[4-(trifluoromethyl)phenyl]methyl}urea] |
